Measured values: patent US11952457B2, “Bioabsorbable resin for additive manufacturing with non-cytotoxic photoinitiator” (Carbon, Inc., priority 2021, dated 2024)

Columns and labels:
[1] = solubility of dye in resin formulation; type: physicochemical; conditions: final resin formulation (oligomer, PC, DDFD)
Protocol: The C&D Green Dye #6 is added to the resin to increase the absorbance of the resin for higher resolution printing. […] To mix C&D Green Dye #6 into the resin, the dye is first solubilized in PC at 0.06 wt % at 80° C. The stock solution of 0.06 wt % dye in PC is added to the oligomer to achieve the desired 0.03% concentration in the final resin.
Crystals of the C&D Green Dye #6 may be observed in this resin. C&D Green Dye #6 tends to crystalize in the resin. To prevent crystal aggregation, this resin should be mixed fresh prior to printing.

[2] = versus BAPO; cited from earlier work

Cc1ccc(Nc2ccc(Nc3ccc(C)cc3)c3c2C(=O)c2ccccc2C3=O)cc1 [C&D Green Dye #6, 1,4-bis(p-tolylamino)anthraquinone]
solubility in the final formulation [1]: limited solubility

CC1(C)COC(=O)C1=O [DDFD, dihydro-4,4-dimethyl-2,3-furandione]
cytotoxicity relative to traditional UV photoinitiators such as BAPO [2]: orders of magnitude less cytotoxic
